Reference: the NIST ThermoML archive (doi:10.1016/j.jct.2006.07.025)
± gives the expanded uncertainty stated by the source.

Test: xn = mol fraction of the nth substance listed
Conditions: for surface tension liquid-gas: Pendant drop shape; for mass density: 101 kPa, Liquid, Vibrating tube method

Cc1ccc(C)c(C)c1 [1,2,4-trimethylbenzene] + CCCCOC(C)=O
Conditions	mass density [kg/m3]	surface tension liquid-gas [mN/m]
298.15 K, x2 = 0	871.66 ± 0.19	29.17 ± 0.33
298.15 K, x2 = 0.0563	871.92 ± 0.19	–
298.15 K, x2 = 0.0998	–	28.68 ± 0.32
298.15 K, x2 = 0.1045	872.14 ± 0.18	–
298.15 K, x2 = 0.1496	872.35 ± 0.18	–
298.15 K, x2 = 0.1996	872.58 ± 0.18	–
298.15 K, x2 = 0.2001	–	28.2 ± 0.31
298.15 K, x2 = 0.2533	872.82 ± 0.17	–
298.15 K, x2 = 0.2994	–	27.73 ± 0.31
298.15 K, x2 = 0.2998	873.03 ± 0.17	–
298.15 K, x2 = 0.3552	873.27 ± 0.17	–
298.15 K, x2 = 0.3998	873.46 ± 0.16	–
298.15 K, x2 = 0.4003	–	27.25 ± 0.3
298.15 K, x2 = 0.45	873.68 ± 0.16	–
298.15 K, x2 = 0.4958	–	26.78 ± 0.3
298.15 K, x2 = 0.5001	873.9 ± 0.16	–
298.15 K, x2 = 0.5503	874.11 ± 0.16	–
298.15 K, x2 = 0.5995	874.32 ± 0.15	–
298.15 K, x2 = 0.6001	–	26.33 ± 0.29
298.15 K, x2 = 0.6495	874.54 ± 0.15	–
298.15 K, x2 = 0.6998	874.75 ± 0.15	–
298.15 K, x2 = 0.6999	–	25.93 ± 0.29
298.15 K, x2 = 0.7495	874.97 ± 0.15	–
298.15 K, x2 = 0.7998	–	25.57 ± 0.28
298.15 K, x2 = 0.7999	875.2 ± 0.2	–
298.15 K, x2 = 0.8499	875.43 ± 0.14	–
298.15 K, x2 = 0.8989	875.67 ± 0.14	–
298.15 K, x2 = 0.8997	–	25.23 ± 0.28
298.15 K, x2 = 0.9478	875.91 ± 0.14	–
303.15 K, x2 = 0	867.61 ± 0.19	28.67 ± 0.32
303.15 K, x2 = 0.1001	867.99 ± 0.18	28.18 ± 0.31
303.15 K, x2 = 0.2009	868.38 ± 0.18	27.69 ± 0.31
303.15 K, x2 = 0.3006	868.73 ± 0.17	27.22 ± 0.3
303.15 K, x2 = 0.4001	869.1 ± 0.17	26.73 ± 0.3
303.15 K, x2 = 0.5004	869.45 ± 0.16	26.27 ± 0.29
303.15 K, x2 = 0.6006	869.81 ± 0.16	25.8 ± 0.29
303.15 K, x2 = 0.7001	870.15 ± 0.15	25.4 ± 0.28
303.15 K, x2 = 0.7997	870.43 ± 0.15	25.03 ± 0.28
303.15 K, x2 = 0.9	870.91 ± 0.14	24.7 ± 0.27
308.15 K, x2 = 0	863.59 ± 0.19	28.17 ± 0.32
308.15 K, x2 = 0.1005	863.87 ± 0.18	27.67 ± 0.31
308.15 K, x2 = 0.1998	864.16 ± 0.18	27.18 ± 0.3
308.15 K, x2 = 0.3004	864.42 ± 0.17	26.7 ± 0.3
308.15 K, x2 = 0.4003	864.67 ± 0.17	26.21 ± 0.29
308.15 K, x2 = 0.5007	864.93 ± 0.16	25.75 ± 0.29
308.15 K, x2 = 0.5991	865.17 ± 0.16	25.28 ± 0.28
308.15 K, x2 = 0.6995	865.43 ± 0.15	24.87 ± 0.28
308.15 K, x2 = 0.7999	865.68 ± 0.15	24.5 ± 0.27
308.15 K, x2 = 0.9004	865.94 ± 0.14	24.16 ± 0.27
313.15 K, x2 = 0	859.54 ± 0.19	27.67 ± 0.31
313.15 K, x2 = 0.0499	859.66 ± 0.19	–
313.15 K, x2 = 0.1002	859.76 ± 0.19	27.12 ± 0.31
313.15 K, x2 = 0.1503	859.87 ± 0.18	–
313.15 K, x2 = 0.1995	859.98 ± 0.18	26.55 ± 0.3
313.15 K, x2 = 0.25	860.08 ± 0.18	–
313.15 K, x2 = 0.3	860.19 ± 0.17	26.02 ± 0.29
313.15 K, x2 = 0.35	860.28 ± 0.17	–
313.15 K, x2 = 0.3996	860.37 ± 0.17	25.48 ± 0.29
313.15 K, x2 = 0.4499	860.46 ± 0.16	–
313.15 K, x2 = 0.5002	860.56 ± 0.16	24.99 ± 0.28
313.15 K, x2 = 0.5499	860.65 ± 0.16	–
313.15 K, x2 = 0.5998	860.73 ± 0.16	24.55 ± 0.28
313.15 K, x2 = 0.6503	860.82 ± 0.15	–
313.15 K, x2 = 0.6999	860.91 ± 0.15	24.2 ± 0.27
313.15 K, x2 = 0.7499	861.01 ± 0.15	–
313.15 K, x2 = 0.8004	861.1 ± 0.15	23.9 ± 0.27
313.15 K, x2 = 0.85	861.21 ± 0.15	–
313.15 K, x2 = 0.9005	861.33 ± 0.15	23.62 ± 0.27
313.15 K, x2 = 0.9496	861.45 ± 0.14	–

Cc1ccc(C)c(C)c1 [1,2,4-trimethylbenzene] + CCCOC(C)=O
Conditions	mass density [kg/m3]	surface tension liquid-gas [mN/m]
298.15 K, x2 = 0	871.66 ± 0.19	29.17 ± 0.33
298.15 K, x2 = 0.0607	872.13 ± 0.19	–
298.15 K, x2 = 0.1002	872.45 ± 0.19	28.61 ± 0.32
298.15 K, x2 = 0.1578	872.95 ± 0.18	–
298.15 K, x2 = 0.2008	873.32 ± 0.18	28.06 ± 0.31
298.15 K, x2 = 0.2518	873.78 ± 0.18	–
298.15 K, x2 = 0.302	874.24 ± 0.17	27.51 ± 0.31
298.15 K, x2 = 0.3504	874.71 ± 0.17	–
298.15 K, x2 = 0.4003	875.2 ± 0.17	26.97 ± 0.3
298.15 K, x2 = 0.4568	875.78 ± 0.17	–
298.15 K, x2 = 0.4993	876.23 ± 0.17	26.44 ± 0.3
298.15 K, x2 = 0.549	876.77 ± 0.16	–
298.15 K, x2 = 0.6006	877.36 ± 0.16	25.93 ± 0.29
298.15 K, x2 = 0.6494	877.93 ± 0.16	–
298.15 K, x2 = 0.7006	878.55 ± 0.16	25.44 ± 0.28
298.15 K, x2 = 0.7493	879.16 ± 0.16	–
298.15 K, x2 = 0.7991	879.8 ± 0.15	24.96 ± 0.28
298.15 K, x2 = 0.8497	880.49 ± 0.15	–
298.15 K, x2 = 0.8991	881.17 ± 0.15	24.48 ± 0.27
298.15 K, x2 = 0.9464	881.86 ± 0.15	–
303.15 K, x2 = 0	867.61 ± 0.19	28.67 ± 0.32
303.15 K, x2 = 0.0982	868.25 ± 0.19	28.09 ± 0.31
303.15 K, x2 = 0.1994	868.98 ± 0.18	27.53 ± 0.31
303.15 K, x2 = 0.3006	869.76 ± 0.18	26.96 ± 0.3
303.15 K, x2 = 0.3996	870.56 ± 0.17	26.4 ± 0.3
303.15 K, x2 = 0.503	871.46 ± 0.17	25.86 ± 0.29
303.15 K, x2 = 0.6003	872.41 ± 0.16	25.34 ± 0.28
303.15 K, x2 = 0.6979	873.41 ± 0.16	24.83 ± 0.28
303.15 K, x2 = 0.7993	874.52 ± 0.15	24.34 ± 0.27
303.15 K, x2 = 0.8992	875.72 ± 0.15	23.86 ± 0.27
308.15 K, x2 = 0	863.59 ± 0.19	28.17 ± 0.32
308.15 K, x2 = 0.0986	864.07 ± 0.19	27.57 ± 0.31
308.15 K, x2 = 0.1998	864.65 ± 0.18	26.99 ± 0.3
308.15 K, x2 = 0.3028	865.29 ± 0.18	26.41 ± 0.3
308.15 K, x2 = 0.4004	865.93 ± 0.17	25.83 ± 0.29
308.15 K, x2 = 0.5036	866.67 ± 0.17	25.27 ± 0.29
308.15 K, x2 = 0.6003	867.44 ± 0.16	24.74 ± 0.28
308.15 K, x2 = 0.6977	868.27 ± 0.16	24.22 ± 0.27
308.15 K, x2 = 0.8	869.22 ± 0.16	23.72 ± 0.27
308.15 K, x2 = 0.9005	870.23 ± 0.15	23.23 ± 0.26
313.15 K, x2 = 0	859.54 ± 0.19	27.67 ± 0.31
313.15 K, x2 = 0.0497	859.64 ± 0.19	–
313.15 K, x2 = 0.0998	859.82 ± 0.19	–
313.15 K, x2 = 0.1005	–	27.05 ± 0.31
313.15 K, x2 = 0.15	860.01 ± 0.18	–
313.15 K, x2 = 0.2001	860.24 ± 0.18	26.46 ± 0.3
313.15 K, x2 = 0.2498	860.45 ± 0.18	–
313.15 K, x2 = 0.2999	860.71 ± 0.18	25.86 ± 0.29
313.15 K, x2 = 0.35	860.98 ± 0.17	–
313.15 K, x2 = 0.4001	861.25 ± 0.17	25.26 ± 0.29
313.15 K, x2 = 0.4503	861.53 ± 0.17	–
313.15 K, x2 = 0.4997	861.83 ± 0.17	–
313.15 K, x2 = 0.4998	–	24.69 ± 0.28
313.15 K, x2 = 0.5502	862.15 ± 0.17	–
313.15 K, x2 = 0.6001	862.48 ± 0.16	24.15 ± 0.27
313.15 K, x2 = 0.6499	862.81 ± 0.16	–
313.15 K, x2 = 0.7	863.18 ± 0.16	–
313.15 K, x2 = 0.7002	–	23.61 ± 0.27
313.15 K, x2 = 0.7503	863.54 ± 0.16	–
313.15 K, x2 = 0.7998	863.94 ± 0.16	23.1 ± 0.26
313.15 K, x2 = 0.85	864.35 ± 0.15	–
313.15 K, x2 = 0.9002	864.79 ± 0.15	22.61 ± 0.26
313.15 K, x2 = 0.9495	865.18 ± 0.15	–
